These results are taken from patent US12403135B2, “4H-pyrrolo[3,2-c]pyridin-4-one derivatives” (Bayer Aktiengesellschaft, priority 2019, dated 2025).

Structures are written as SMILES. Where two headings read alike, the source gives them in different places.

Format in all cases: cell-based
Test [1] concerns the target Ba/F3-EGFR-WT cells (BA/F3 wild type EGFR) (Homo sapiens, UniProt P00533). As to the kind of experiment: BA/F3 (wild type) proliferation assay, Cell Titer-Glo. Particulars: Table 7; plated with 10 ng/mL EGF, without IL-3, 48 h; read-out: BA/F3 (wild type) IC50. The method, then:
(§1) Plates were incubated at 37° C. for 48 h. Retrovirus was harvested by filtering the media supernatant through a 0.45 μm filter.
Ba/F3 cells purchased from DSMZ were grown in RPMI+10% FBS+10 ng/mL IL-3 and infected with filtered retroviral supernatant at a 1:2 dilution. Polybrene was added to a concentration of 8 μg/mL, plates were spun for 90 min, and incubated overnight at 37° C. 2 μg/mL puromycin was added to the infected cells 24 h after infection and cells were continually grown in the presence of puromycin and 10 ng/mL IL-3. Following stably expressing Ba/F3 cell lines were generated: Ba/F3-EGFR-WT.
For cell survival assays, Ba/F3 cells were grown to a density of 1-2 million cells per mL, spun down and resuspended in media without IL-3, and replated at a concentration 200,000-500,000 cells per mL. The cells ectopically expressing WT EGFR were plated with 10 ng/mL Millipore Culture grade EGF.
24 hours later, cells were plated in 30 μL in a 384 well plate at a concentration of 3200 cells per well for cells assayed in the absence of IL-3. 100 nL of compound was added to each well using a 100 nL pin head, and plates were incubated at 37° C. for 48 h.
Cell viability was measured by adding 30 μL of Cell Titer-Glo Luminescent Cell Viability Reagent. Plates were sealed with Perkin Elmer Top-Seal, inverted several times to mix, and immediately centrifuged at 1000 rpm for 2 min. Plates were incubated in low light conditions for 8-10 min and luminescence was measured.
(In general: In ATP-based viability assays light output follows the ATP content of the culture.)

Test [2] has as its system Ba/F3-EGFR-delLREA cells (EGFR del19/delLREA (746-750), E746_A750del). Nature of the test: BA/F3 EGFR del19/delLREA (746-750) (E746_A750del) cell survival assay, Cell Titer-Glo. The method, then:
as §1
(§2) Ba/F3 cells purchased from DSMZ were grown in RPMI+10% FBS+10 ng/mL IL-3 and infected with filtered retroviral supernatant at a 1:2 dilution. Polybrene was added to a concentration of 8 μg/mL, plates were spun for 90 min, and incubated overnight at 37° C. 2 μg/mL puromycin was added to the infected cells 24 h after infection and cells were continually grown in the presence of puromycin and 10 ng/mL IL-3. Following stably expressing Ba/F3 cell lines were generated: Ba/F3-EGFR-L858R, Ba/F3-EGFR-delLREA, (Ba/F3-vector-control).
(§3) For cell survival assays, Ba/F3 cells were grown to a density of 1-2 million cells per mL, spun down and resuspended in media without IL-3, and replated at a concentration 200,000-500,000 cells per mL. The cells ectopically expressing pBABEpuro empty vector were plated with 10 ng/mL IL-3.
(§4) 2 days later, cells were plated in 50 μL in a 384 well plate at a concentration of 4000 cells per well for cells assayed in the absence of IL-3 and 2000 cells per well for cells (pBABE puro empty vector) assayed in the presence of IL-3. 100 nL of compound was added to each well using a 100 nL pin head, and plates were incubated at 37° C. for 48 h.
(§5) Cell viability was measured by adding 20 μL of Cell Titer-Glo Luminescent Cell Viability Reagent diluted 1:3 in PBS. Plates were sealed with Perkin Elmer Top-Seal, inverted several times to mix, and immediately centrifuged at 1000 rpm for 2 min. Plates were incubated in low light conditions for 8-10 min and luminescence was measured.

Another test deals with Ba/F3-EGFR-L858R cells (Homo sapiens, UniProt P00533, L858R, cells depend on it). Nature of the test: BA/F3 EGFR L858R cell survival assay, Cell Titer-Glo. The conditions noted are these: read-out: BA/F3 (EGFR L858R) IC50. As to the method:
as §1, §2, §3, §4, §5

Test [3] deals with Ba/F3-EGFR-D770_N771 insNPG cells (Homo sapiens, UniProt P00533, INS772GNP, cells depend on it). Nature of the test: BA/F3 (insNPG) proliferation, EGFR Exon20 insertion mutation. The conditions noted are these: Table 9; EGFR Exon20 insertion mutations; read-out: BA/F3 (insNPG) IC50. As to the method:
as §1
as §2, with “Ba/F3-EGFR-V769_D770 insASV, Ba/F3-EGFR-D770_N771 insNPG, Ba/F3-EGFR-N771_P772 insH, Ba/F3-EGFR-H773_V774 insNPH, Ba/F3-EGFR-D770_N771 insSVD C797S, Ba/F3-EGFR-E746_A750del C797S, Ba/F3-EGFR-L858R C797S, Ba/F3-EGFR L861Q and Ba/F3-ERBB2-A775_G776insYVMA” for “Ba/F3-EGFR-L858R, Ba/F3-EGFR-delLREA,”

The target of test [4] is Ba/F3-EGFR-V769_D770 insASV cells (Homo sapiens, UniProt P00533, DUP767-769, cells depend on it). As to the kind of experiment: BA/F3 (ASV) proliferation, EGFR Exon20 insertion mutation. Particulars: Table 9; EGFR Exon20 insertion mutations; read-out: BA/F3 (ASV) IC50. As to the method: as §1
as §2, with “Ba/F3-EGFR-V769_D770 insASV, Ba/F3-EGFR-D770_N771 insNPG, Ba/F3-EGFR-N771_P772 insH, Ba/F3-EGFR-H773_V774 insNPH, Ba/F3-EGFR-D770_N771 insSVD C797S, Ba/F3-EGFR-E746_A750del C797S, Ba/F3-EGFR-L858R C797S, Ba/F3-EGFR L861Q and Ba/F3-ERBB2-A775_G776insYVMA” for “Ba/F3-EGFR-L858R, Ba/F3-EGFR-delLREA,”

The next test relates to Ba/F3-EGFR L861Q cells. Nature of the test: BA/F3 (EGFR L861Q) proliferation, uncommon EGFR mutation. The conditions noted are these: Table 10, classical activating and uncommon EGFR mutations. The method, then: as §1
as §2, with “Ba/F3-EGFR-V769_D770 insASV, Ba/F3-EGFR-D770_N771 insNPG, Ba/F3-EGFR-N771_P772 insH, Ba/F3-EGFR-H773_V774 insNPH, Ba/F3-EGFR-D770_N771 insSVD C797S, Ba/F3-EGFR-E746_A750del C797S, Ba/F3-EGFR-L858R C797S, Ba/F3-EGFR L861Q and Ba/F3-ERBB2-A775_G776insYVMA” for “Ba/F3-EGFR-L858R, Ba/F3-EGFR-delLREA,”

For test [5], the system named is Ba/F3-EGFR-D770_N771 insSVD C797S cells. Nature of the test: BA/F3 (EGFR D770_N771 insSVD C797S) proliferation, acquired resistance. The conditions noted are these: Ba/F3 EGFR-D770-N771ins_SVD; Table 11; acquired resistance space. As to the method:
as §1
as §2, with “Ba/F3-EGFR-V769_D770 insASV, Ba/F3-EGFR-D770_N771 insNPG, Ba/F3-EGFR-N771_P772 insH, Ba/F3-EGFR-H773_V774 insNPH, Ba/F3-EGFR-D770_N771 insSVD C797S, Ba/F3-EGFR-E746_A750del C797S, Ba/F3-EGFR-L858R C797S, Ba/F3-EGFR L861Q and Ba/F3-ERBB2-A775_G776insYVMA” for “Ba/F3-EGFR-L858R, Ba/F3-EGFR-delLREA,”

The subject of test [6] is Ba/F3-EGFR-E746_A750del C797S cells. Nature of the test: BA/F3 (EGFR E746_A750del C797S) proliferation, acquired resistance. Particulars: Table 11, acquired resistance space. As to the method: as §1
as §2, with “Ba/F3-EGFR-V769_D770 insASV, Ba/F3-EGFR-D770_N771 insNPG, Ba/F3-EGFR-N771_P772 insH, Ba/F3-EGFR-H773_V774 insNPH, Ba/F3-EGFR-D770_N771 insSVD C797S, Ba/F3-EGFR-E746_A750del C797S, Ba/F3-EGFR-L858R C797S, Ba/F3-EGFR L861Q and Ba/F3-ERBB2-A775_G776insYVMA” for “Ba/F3-EGFR-L858R, Ba/F3-EGFR-delLREA,”

The test system of test [7] is Ba/F3-EGFR-L858R C797S cells. Nature of the test: BA/F3 (EGFR L858R C797S) proliferation, acquired resistance. Particulars: Table 11, acquired resistance space. As to the method:
as §1
as §2, with “Ba/F3-EGFR-V769_D770 insASV, Ba/F3-EGFR-D770_N771 insNPG, Ba/F3-EGFR-N771_P772 insH, Ba/F3-EGFR-H773_V774 insNPH, Ba/F3-EGFR-D770_N771 insSVD C797S, Ba/F3-EGFR-E746_A750del C797S, Ba/F3-EGFR-L858R C797S, Ba/F3-EGFR L861Q and Ba/F3-ERBB2-A775_G776insYVMA” for “Ba/F3-EGFR-L858R, Ba/F3-EGFR-delLREA,”

The target of test [8] is Ba/F3-ERBB2-A775_G776insYVMA cells (Homo sapiens, UniProt P04626, DUP772-775, cells depend on it). Nature of the test: BA/F3 (ERBB2 A775_G776 insYVMA) proliferation. Particulars: Table 12; read-out: BA/F3 (ERBB2 A775_G776 insYVMA) IC50. The method, then: as §1
Sequence of Ba/F3-ERBB2-A775_G776insYVMA cells (P04626 with tags, fused parts or gaps DUP772-775): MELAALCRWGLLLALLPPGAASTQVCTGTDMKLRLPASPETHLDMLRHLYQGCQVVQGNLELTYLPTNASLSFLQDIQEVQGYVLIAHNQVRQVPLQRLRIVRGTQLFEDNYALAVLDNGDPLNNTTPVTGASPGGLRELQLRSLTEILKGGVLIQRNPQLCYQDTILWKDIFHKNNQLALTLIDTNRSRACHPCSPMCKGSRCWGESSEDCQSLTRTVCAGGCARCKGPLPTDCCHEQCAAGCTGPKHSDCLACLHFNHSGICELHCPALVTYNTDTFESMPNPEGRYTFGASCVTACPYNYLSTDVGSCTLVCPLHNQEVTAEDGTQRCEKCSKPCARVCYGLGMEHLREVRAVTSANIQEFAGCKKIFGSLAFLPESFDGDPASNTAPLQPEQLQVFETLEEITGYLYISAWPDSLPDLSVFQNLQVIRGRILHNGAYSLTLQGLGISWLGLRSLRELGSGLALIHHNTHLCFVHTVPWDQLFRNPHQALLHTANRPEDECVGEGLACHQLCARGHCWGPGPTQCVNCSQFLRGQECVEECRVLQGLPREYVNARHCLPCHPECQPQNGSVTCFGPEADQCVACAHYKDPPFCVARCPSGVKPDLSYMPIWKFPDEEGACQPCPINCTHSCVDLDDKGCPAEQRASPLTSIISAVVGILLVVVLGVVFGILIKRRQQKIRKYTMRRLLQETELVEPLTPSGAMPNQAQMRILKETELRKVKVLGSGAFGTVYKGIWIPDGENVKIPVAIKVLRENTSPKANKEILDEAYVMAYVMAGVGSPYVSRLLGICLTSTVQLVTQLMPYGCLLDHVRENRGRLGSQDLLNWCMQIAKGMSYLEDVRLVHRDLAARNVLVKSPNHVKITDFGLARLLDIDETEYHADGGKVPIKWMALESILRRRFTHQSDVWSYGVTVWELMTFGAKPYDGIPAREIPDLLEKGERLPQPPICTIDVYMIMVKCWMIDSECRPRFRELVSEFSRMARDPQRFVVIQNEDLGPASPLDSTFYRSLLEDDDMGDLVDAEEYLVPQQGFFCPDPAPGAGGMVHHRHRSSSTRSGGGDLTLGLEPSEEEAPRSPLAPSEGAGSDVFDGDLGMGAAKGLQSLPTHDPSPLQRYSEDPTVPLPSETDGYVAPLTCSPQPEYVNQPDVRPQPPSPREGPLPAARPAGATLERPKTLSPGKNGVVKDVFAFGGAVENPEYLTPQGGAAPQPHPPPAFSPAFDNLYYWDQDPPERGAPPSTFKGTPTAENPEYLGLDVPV
as §2, with “Ba/F3-EGFR-V769_D770 insASV, Ba/F3-EGFR-D770_N771 insNPG, Ba/F3-EGFR-N771_P772 insH, Ba/F3-EGFR-H773_V774 insNPH, Ba/F3-EGFR-D770_N771 insSVD C797S, Ba/F3-EGFR-E746_A750del C797S, Ba/F3-EGFR-L858R C797S, Ba/F3-EGFR L861Q and Ba/F3-ERBB2-A775_G776insYVMA” for “Ba/F3-EGFR-L858R, Ba/F3-EGFR-delLREA,”

The mark [9] stands for this setting: Table 8, without IL-3, 48 h, read-out: BA/F3 (EGFR del19/delREA (746-750) IC50).

Sequence of Ba/F3-EGFR-WT cells (BA/F3 wild type EGFR) (P00533 whole entry, change not shown): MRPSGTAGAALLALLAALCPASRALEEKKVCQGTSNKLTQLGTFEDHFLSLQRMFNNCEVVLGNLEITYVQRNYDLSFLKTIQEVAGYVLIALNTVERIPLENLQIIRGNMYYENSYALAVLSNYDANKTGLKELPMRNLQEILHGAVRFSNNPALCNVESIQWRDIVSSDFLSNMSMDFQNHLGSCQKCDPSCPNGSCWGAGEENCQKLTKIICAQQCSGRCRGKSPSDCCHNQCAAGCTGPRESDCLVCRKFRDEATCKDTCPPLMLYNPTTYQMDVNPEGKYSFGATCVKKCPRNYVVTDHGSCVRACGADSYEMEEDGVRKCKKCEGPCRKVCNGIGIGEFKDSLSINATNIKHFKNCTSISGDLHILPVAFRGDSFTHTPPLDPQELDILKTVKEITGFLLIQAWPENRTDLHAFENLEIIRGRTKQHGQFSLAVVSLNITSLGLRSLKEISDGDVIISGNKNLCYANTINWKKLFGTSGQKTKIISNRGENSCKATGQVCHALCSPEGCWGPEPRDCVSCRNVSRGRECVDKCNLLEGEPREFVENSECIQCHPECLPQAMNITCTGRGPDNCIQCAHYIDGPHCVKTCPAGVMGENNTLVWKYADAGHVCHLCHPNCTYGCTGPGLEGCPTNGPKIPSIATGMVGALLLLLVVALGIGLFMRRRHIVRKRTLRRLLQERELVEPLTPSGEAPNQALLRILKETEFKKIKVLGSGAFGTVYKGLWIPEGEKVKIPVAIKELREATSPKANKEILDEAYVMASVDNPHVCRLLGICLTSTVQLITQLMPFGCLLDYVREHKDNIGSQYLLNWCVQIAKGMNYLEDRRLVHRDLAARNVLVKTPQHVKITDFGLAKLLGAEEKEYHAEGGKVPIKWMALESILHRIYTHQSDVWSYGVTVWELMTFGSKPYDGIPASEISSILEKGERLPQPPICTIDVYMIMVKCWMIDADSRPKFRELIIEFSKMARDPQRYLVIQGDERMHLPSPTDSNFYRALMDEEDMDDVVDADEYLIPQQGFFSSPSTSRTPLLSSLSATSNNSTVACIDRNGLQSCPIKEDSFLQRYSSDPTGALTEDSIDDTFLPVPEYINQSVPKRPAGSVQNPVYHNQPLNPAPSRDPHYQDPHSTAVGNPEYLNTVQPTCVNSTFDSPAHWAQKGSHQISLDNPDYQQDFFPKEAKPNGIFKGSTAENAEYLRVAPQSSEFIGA
Sequence of Ba/F3-EGFR-L858R cells (P00533 whole entry L858R): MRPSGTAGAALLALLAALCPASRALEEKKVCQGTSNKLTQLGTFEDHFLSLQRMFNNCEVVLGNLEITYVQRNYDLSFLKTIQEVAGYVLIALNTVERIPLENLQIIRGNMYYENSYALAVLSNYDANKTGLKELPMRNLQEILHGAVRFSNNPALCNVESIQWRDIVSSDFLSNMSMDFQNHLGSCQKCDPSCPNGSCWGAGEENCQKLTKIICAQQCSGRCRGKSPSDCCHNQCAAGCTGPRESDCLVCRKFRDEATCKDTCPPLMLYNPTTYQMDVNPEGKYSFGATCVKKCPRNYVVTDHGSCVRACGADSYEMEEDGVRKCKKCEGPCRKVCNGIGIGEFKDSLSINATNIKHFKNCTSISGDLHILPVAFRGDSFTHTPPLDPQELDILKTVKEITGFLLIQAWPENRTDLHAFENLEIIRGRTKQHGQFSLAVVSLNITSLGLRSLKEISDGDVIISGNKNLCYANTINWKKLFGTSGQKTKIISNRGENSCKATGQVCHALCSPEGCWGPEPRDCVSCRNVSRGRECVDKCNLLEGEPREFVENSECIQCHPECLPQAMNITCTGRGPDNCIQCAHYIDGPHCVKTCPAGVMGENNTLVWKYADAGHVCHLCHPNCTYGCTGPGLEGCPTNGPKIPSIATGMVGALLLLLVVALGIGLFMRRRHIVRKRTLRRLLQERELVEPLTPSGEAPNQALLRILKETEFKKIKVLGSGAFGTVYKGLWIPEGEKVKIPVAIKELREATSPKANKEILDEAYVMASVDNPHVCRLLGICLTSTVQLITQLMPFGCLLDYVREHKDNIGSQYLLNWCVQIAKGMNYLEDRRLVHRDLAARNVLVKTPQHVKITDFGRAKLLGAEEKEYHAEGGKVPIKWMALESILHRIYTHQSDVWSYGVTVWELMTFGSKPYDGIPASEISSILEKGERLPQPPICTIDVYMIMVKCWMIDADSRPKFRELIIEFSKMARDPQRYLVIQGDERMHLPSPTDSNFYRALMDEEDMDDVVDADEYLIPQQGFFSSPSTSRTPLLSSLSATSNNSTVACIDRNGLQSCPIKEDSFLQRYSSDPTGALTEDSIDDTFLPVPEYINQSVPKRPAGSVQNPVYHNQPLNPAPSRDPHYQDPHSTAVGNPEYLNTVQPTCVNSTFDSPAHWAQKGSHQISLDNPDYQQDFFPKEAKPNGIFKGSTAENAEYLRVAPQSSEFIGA
Sequence of Ba/F3-EGFR-D770_N771 insNPG cells (P00533 with tags, fused parts or gaps INS772GNP): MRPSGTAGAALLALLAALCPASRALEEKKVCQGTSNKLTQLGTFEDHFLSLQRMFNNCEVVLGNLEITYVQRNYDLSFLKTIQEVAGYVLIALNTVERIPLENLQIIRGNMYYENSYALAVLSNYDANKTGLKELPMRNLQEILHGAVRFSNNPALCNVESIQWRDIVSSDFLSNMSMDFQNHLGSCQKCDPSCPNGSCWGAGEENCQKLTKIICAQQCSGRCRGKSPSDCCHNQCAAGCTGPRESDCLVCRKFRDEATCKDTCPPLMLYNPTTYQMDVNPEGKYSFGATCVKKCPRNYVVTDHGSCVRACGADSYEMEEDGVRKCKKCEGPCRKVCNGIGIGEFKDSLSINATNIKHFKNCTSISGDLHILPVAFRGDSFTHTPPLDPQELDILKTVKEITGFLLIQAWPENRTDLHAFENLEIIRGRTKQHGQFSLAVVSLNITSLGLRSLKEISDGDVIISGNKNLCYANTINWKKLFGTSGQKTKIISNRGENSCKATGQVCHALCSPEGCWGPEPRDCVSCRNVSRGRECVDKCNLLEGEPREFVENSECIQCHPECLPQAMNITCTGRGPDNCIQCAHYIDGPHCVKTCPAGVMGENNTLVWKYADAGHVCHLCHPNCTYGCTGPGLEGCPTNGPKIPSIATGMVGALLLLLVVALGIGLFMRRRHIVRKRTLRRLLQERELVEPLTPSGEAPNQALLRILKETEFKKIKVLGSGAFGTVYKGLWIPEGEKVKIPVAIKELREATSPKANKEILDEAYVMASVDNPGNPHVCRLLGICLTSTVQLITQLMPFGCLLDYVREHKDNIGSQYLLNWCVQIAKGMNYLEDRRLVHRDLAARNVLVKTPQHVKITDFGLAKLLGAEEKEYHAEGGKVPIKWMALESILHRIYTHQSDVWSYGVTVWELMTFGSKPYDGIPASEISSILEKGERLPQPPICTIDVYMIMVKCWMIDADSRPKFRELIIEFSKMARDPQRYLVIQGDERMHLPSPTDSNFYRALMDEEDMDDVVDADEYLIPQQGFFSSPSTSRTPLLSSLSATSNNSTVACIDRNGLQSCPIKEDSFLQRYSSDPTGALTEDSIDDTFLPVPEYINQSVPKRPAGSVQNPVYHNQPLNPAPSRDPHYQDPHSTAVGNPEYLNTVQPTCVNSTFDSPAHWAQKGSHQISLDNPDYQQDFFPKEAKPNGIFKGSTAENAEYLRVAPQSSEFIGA

As for `COC(C)(C)COc1cnccc1-c1[nH]c2c(c1Nc1cccc(F)c1OC(F)F)C(=O)NCC2` [Example 19, 3-{[2-(difluoromethoxy)-3-fluorophenyl]amino}-2-[3-(2-methoxy-2-methylpropoxy)pyridin-4-yl]-1,5,6,7-tetrahydro-4H-pyrrolo[3,2-c]pyridin-4-one], the GI50 in test [1] came to 870 nM; at Ba/F3-EGFR-L858R cells (Table 8, without IL-3, 48 h) it was 4.7 nM. Also, in test [2] (setting [9]), the IC50 came out at 0.32 nM.
As for `COc1c(F)cccc1Nc1c(-c2ccncc2OCC(C)(C)OC)[nH]c2c1C(=O)NCC2` [Example 17, 3-[(3-fluoro-2-methoxyphenyl)amino]-2-[3-(2-methoxy-2-methylpropoxy)pyridin-4-yl]-1,5,6,7-tetrahydro-4H-pyrrolo[3,2-c]pyridin-4-one], the GI50 in [1] is 397 nM; on Ba/F3-EGFR-L858R cells (Table 8, without IL-3, 48 h), 1.2 nM; at Ba/F3-EGFR-L858R cells (Table 10, classical activating and uncommon EGFR mutations), 1.49 nM; in test [3], 12.8 nM; in [4], 15.3 nM; in [8] it was 17.1 nM. Also, the IC50 amounted to 0.13 nM in test [2] (setting [9]); 0.575 nM in [2] (Table 10, classical activating and uncommon EGFR mutations, read-out: BA/F3 (EGFR E746_A750del) IC50); 25.7 nM in the test on Ba/F3-EGFR L861Q cells; 16.6 nM in [5]; 0.292 nM in test [6]; 1.16 nM in [7].
Regarding `COC(C)(C)COc1cnccc1-c1[nH]c2c(c1Nc1cccc(F)c1CC(F)F)C(=O)NCC2` [Example 23, 3-{[2-(2,2-difluoroethyl)-3-fluorophenyl]amino}-2-[3-(2-methoxy-2-methylpropoxy)pyridin-4-yl]-1,5,6,7-tetrahydro-4H-pyrrolo[3,2-c]pyridin-4-one], the GI50 in test [1] turned out to be 388 nM; at Ba/F3-EGFR-L858R cells (Table 8, without IL-3, 48 h), 3.2 nM. Besides, the IC50 in test [2] (setting [9]) stood at 0.26 nM.
